“And” between values parts separate entries of the source, which are not always exact repeats. Equal values may be shown once.
Experiments:
HeLa = settings: bulk resorufin, single well, 28.5 h, 10 µM, Bulk resorufin fluorescence
in vitro = settings: human, hela cells, % viability

COc1ccc(/C=C/C(=O)O)cc1S(=O)(=O)N1CCOCC1 [CBK261247]
% viability (HeLa): 84.7%
viability at 28.5 h, 10 µM (in vitro): 101%

O=C(O)/C=C\C(=O)Nc1ccccc1C#Cc1ccccc1 [CBK261680]
% viability (HeLa): 83.2%
viability at 28.5 h, 10 µM (in vitro): 82.9%

CC1(C)CC(NC(=O)/C=C/C(=O)O)CC(C)(C)N1 [CBK262018]
% viability (HeLa): 90.9%
viability at 28.5 h, 10 µM (in vitro): 88.4%

Cc1ccc(C(=O)NCC(=O)NCC(=O)O)cc1 [CBK262170]
% viability (HeLa): 91.7%
viability at 28.5 h, 10 µM (in vitro): 103%

O=C(O)C(Cc1ccc(O)cc1)N1C(=O)c2ccccc2C1=O (centres unmarked) [CBK262479]
% viability (HeLa): 80.4%
viability at 28.5 h, 10 µM (in vitro): 84.1%

O=C(O)c1cc(S(=O)(=O)NCc2ccco2)c(Cl)cc1N1CCCCC1 [CBK263409]
% viability (HeLa): 92.5%
viability at 28.5 h, 10 µM (in vitro): 108%

CCN(CC)CCNC(=O)/C(=N\O)c1ccccn1 [CBK264538]
% viability (HeLa): 93.9%
viability at 28.5 h, 10 µM (in vitro): 90.6%

Cn1c(=O)c2c(-c3ccccc3)n(-c3ccc(C(=O)O)cc3)cc2n(C)c1=O [CBK265040]
% viability (HeLa): 98.4%
viability at 28.5 h, 10 µM (in vitro): 84%

O=C(CC1SC(Nc2ccc(O)cc2)=NC1=O)c1ccccc1 (centres unmarked) [CBK267009]
% viability (HeLa): 89%
viability at 28.5 h, 10 µM (in vitro): 98.5%

O=C(O)C1(c2ccccc2)CCN(S(=O)(=O)c2ccc(F)cc2)CC1 [CBK267571]
% viability (HeLa): 87.8%
viability at 28.5 h, 10 µM (in vitro): 92.9%

O=C(O)CCS(=O)(=O)c1nc(-c2ccccc2)cc(C(F)(F)F)n1 [CBK268832]
% viability (HeLa): 102%
viability at 28.5 h, 10 µM (in vitro): 104%

Cc1nnc(SCC(=O)Nc2ccc(CN3CCOCC3)cc2)s1 [CBK269849]
% viability (HeLa): 112%
viability at 28.5 h, 10 µM (in vitro): 96.4%

O=c1cc(CSc2ccccn2)[nH]c2[nH]n(-c3ccccc3)c(=O)c12 [CBK269895]
% viability (HeLa): 109%
viability at 28.5 h, 10 µM (in vitro): 92.7%

O=C(Cn1c([C@H]2CCCO2)cc2cccnc21)NC1CC1 [CBK282274]
% viability (HeLa): 102%
viability at 28.5 h, 10 µM (in vitro): 94.8%

O=C(Cn1c([C@@H]2CCCO2)cc2cccnc21)N1CCCCCC1 [CBK282285]
% viability (HeLa): 101%
viability at 28.5 h, 10 µM (in vitro): 88%

CC1CCCN(Cc2c([C@H]3CCCO3)[nH]c3ncccc23)C1 (some centres unmarked) [CBK282287]
% viability (HeLa): 106%
viability at 28.5 h, 10 µM (in vitro): 110%

CC[C@@H](Cn1nc(-c2cccs2)ccc1=O)NC(=O)c1ccco1 [CBK282308]
% viability (HeLa): 87.3%
viability at 28.5 h, 10 µM (in vitro): 94.7%

O=C(NC1CCCCC1)[C@H]1C=CCN1C(=O)c1ccc(F)cc1F [CBK282311]
% viability (HeLa): 97.2%
viability at 28.5 h, 10 µM (in vitro): 95%

CC[C@@H](Cn1nc(-c2ccc(F)c(F)c2)ccc1=O)NC(=O)C1CC1 [CBK282313]
% viability (HeLa): 89.3%
viability at 28.5 h, 10 µM (in vitro): 90.6%

CC(C)[C@H](Cn1nc(C2CC2)ccc1=O)NC(=O)C1CCC1 [CBK282367]
% viability (HeLa): 91.4%
viability at 28.5 h, 10 µM (in vitro): 85.1%

O=C(NCCc1ccccc1)[C@H]1C=CCN1C(=O)c1ccc(F)cc1 [CBK282383]
% viability (HeLa): 96.3% and 92.6%
viability at 28.5 h, 10 µM (in vitro): 89.4%

CC[C@@H](Cn1ncc2ccccc2c1=O)NC(=O)C1CCC1 [CBK282384]
% viability (HeLa): 82%
viability at 28.5 h, 10 µM (in vitro): 93.4%

CC(C)(C)NC(=O)CN1C(=O)[C@H]2CCCN2C(=O)c2ccccc21 [CBK282428]
% viability (HeLa): 107%
viability at 28.5 h, 10 µM (in vitro): 89.5%

O=C(CN1C(=O)[C@H]2CCCN2C(=O)c2ccccc21)NC1CCCC1 [CBK282438]
% viability (HeLa): 110%
viability at 28.5 h, 10 µM (in vitro): 112%

C=CCNC(=O)[C@H]1C=CCN1S(=O)(=O)c1cccc2ccccc12 [CBK282440]
% viability (HeLa): 102%
viability at 28.5 h, 10 µM (in vitro): 91%

COc1cccc(CN2C(=O)[C@H]3CCCN3C(=O)c3ccccc32)c1 [CBK282852]
% viability (HeLa): 106%
viability at 28.5 h, 10 µM (in vitro): 108%

O=C(CN1C(=O)[C@H]2CCCN2C(=O)c2ccccc21)NCC1CC1 [CBK282853]
% viability (HeLa): 88.6%
viability at 28.5 h, 10 µM (in vitro): 87.6%

O=C1[C@@H]2CCCN2C(=O)c2ccccc2N1Cc1ccccc1F [CBK282855]
% viability (HeLa): 106%
viability at 28.5 h, 10 µM (in vitro): 93.9%

O=C1[C@@H]2CCCN2C(=O)c2ccccc2N1Cc1ccc(F)cc1 [CBK282856]
% viability (HeLa): 99.5%
viability at 28.5 h, 10 µM (in vitro): 117%

CCC(C)NC(=O)Cn1c([C@H]2CCCO2)cc2cccnc21 (some centres unmarked) [CBK282874]
% viability (HeLa): 100%
viability at 28.5 h, 10 µM (in vitro): 88.1%

CC(CCN1CC2C[C@@H](O)CN2C[C@H]1C)c1ccccc1 (some centres unmarked) [CBK283010]
% viability (HeLa): 89.2%
viability at 28.5 h, 10 µM (in vitro): 82.4%

C[C@H](Cn1c(C(F)(F)F)cc2cccnc21)NC(=O)C1CC1 [CBK283227]
% viability (HeLa): 89.4%
viability at 28.5 h, 10 µM (in vitro): 93.7%

O=C(C1CC1)N1CCC[C@H]1Cn1nc(-c2cccs2)ccc1=O [CBK284250]
% viability (HeLa): 80.9%
viability at 28.5 h, 10 µM (in vitro): 76.7%

Cc1oc(C2CC2)cc1C(=O)N[C@H](C)Cn1nnc2ccccc21 [CBK284258]
% viability (HeLa): 80.8%
viability at 28.5 h, 10 µM (in vitro): 78.1%

O=C(NC[C@@H]1CCCN(C(=O)c2cscn2)C1)c1cccs1 [CBK284263]
% viability (HeLa): 93.5%
viability at 28.5 h, 10 µM (in vitro): 85.7%

CC(C)(C)OC(=O)N1CCC[C@H]([C@H](O)c2ccc(F)cc2)C1 [CBK284298]
% viability (HeLa): 80.1%
viability at 28.5 h, 10 µM (in vitro): 92.3%

CC[C@H](Cn1ncc2ccccc2c1=O)NC(=O)c1ccco1 [CBK284300]
% viability (HeLa): 86.8%
viability at 28.5 h, 10 µM (in vitro): 78.6%

CC[C@H](Cn1ncc2ccccc2c1=O)NC(=O)C1CCCC1 [CBK284302]
% viability (HeLa): 102%
viability at 28.5 h, 10 µM (in vitro): 94.2%

O=C(C1CC1)N1CCC[C@H](Cn2nc(-c3cccs3)ccc2=O)C1 [CBK284314]
% viability (HeLa): 91.8%
viability at 28.5 h, 10 µM (in vitro): 74.7%

O=C(NCCc1ccccc1)[C@@H]1C=CCN1C(=O)C1CC1 [CBK284315]
% viability (HeLa): 81.8%
viability at 28.5 h, 10 µM (in vitro): 93.6%

O=C(NCCc1ccccc1)[C@@H]1C=CCN1C(=O)c1ccco1 [CBK284316]
% viability (HeLa): 90%
viability at 28.5 h, 10 µM (in vitro): 93%

C[C@@H](Cn1nnc2ccccc21)NC(=O)c1ccco1 [CBK284319]
% viability (HeLa): 86.3%
viability at 28.5 h, 10 µM (in vitro): 75.9%

CCS(=O)(=O)N1CC=C[C@H]1C(=O)NCCc1ccccc1 [CBK284325]
% viability (HeLa): 89.7%
viability at 28.5 h, 10 µM (in vitro): 107%

CC(C)(C)OC(=O)N1CCC[C@@H](CNC(=O)c2cccs2)C1 [CBK284332]
% viability (HeLa): 90.2%
viability at 28.5 h, 10 µM (in vitro): 104%

CC(C)[C@@H](Cn1c(=O)oc2ccccc21)NC(=O)c1ccco1 [CBK284531]
% viability (HeLa): 86.1%
viability at 28.5 h, 10 µM (in vitro): 94.1%

C[C@H](Cn1c(=O)oc2ccccc21)NC(=O)c1cccs1 [CBK284532]
% viability (HeLa): 90.7%
viability at 28.5 h, 10 µM (in vitro): 85%

C[C@@H](Cn1c(=O)oc2ccccc21)NC(=O)Cc1cccs1 [CBK284533]
% viability (HeLa): 79.8%
viability at 28.5 h, 10 µM (in vitro): 92.9%

C[C@H](Cn1nc2c(cc1=O)CCCCC2)NC(=O)c1cccs1 [CBK284545]
% viability (HeLa): 85.9%
viability at 28.5 h, 10 µM (in vitro): 101%

C[C@@H]1CN2CCCC2CN1Cc1cccs1 (some centres unmarked) [CBK284550]
% viability (HeLa): 98.3%
viability at 28.5 h, 10 µM (in vitro): 85.6%

C[C@@H]1CN2CCCC2CN1CC1=Cc2ccccc2OC1 (some centres unmarked) [CBK284552]
% viability (HeLa): 103%
viability at 28.5 h, 10 µM (in vitro): 88.6%

C[C@@H]1CN2C[C@H](O)CC2CN1Cc1ccccc1C(F)(F)F (some centres unmarked) [CBK284556]
% viability (HeLa): 100%
viability at 28.5 h, 10 µM (in vitro): 80.7%

CS(=O)(=O)N1C2CCC(C2)[C@H]1COc1cccc(C(F)(F)F)c1 (some centres unmarked) [CBK284596]
% viability (HeLa): 107%
viability at 28.5 h, 10 µM (in vitro): 98.7%
